Reference: article PMC8989888, “Development of optimized drug-like small molecule inhibitors of the SARS-CoV-2 3CL protease for treatment of COVID-19” (Nature Communications, 2022)
Values joined by “and” are separate entries in the source; they are usually repeats but may differ in a detail not shown here. Equal values may be shown once. Read-outs that look alike come from different tables or passages of the source.

Legend:
[1] = target: T1, SARS-CoV-2 3CL protease (Severe acute respiratory syndrome coronavirus 2, UniProt P0DTD1); assay: biochemical
[2] = target: T1, SARS-CoV-2 3CL protease; assay: biochemical; remark: listed apart in the source
[3] = target: ACE1 (Homo sapiens, UniProt P12821); assay: biochemical
[4] = target: ACE2 (Homo sapiens, UniProt Q9BYF1); assay: biochemical
[5] = target: Caspase 8 (Homo sapiens, UniProt Q14790); assay: biochemical
[6] = target: Cathepsin B (Homo sapiens, UniProt P07858); assay: biochemical
[7] = target: T2, Cathepsin L (Homo sapiens, UniProt P07711); assay: Protease selectivity panel: Cathepsin L; type: biochemical
T2 construct: Human liver; from tissue; host or cells: human liver

[8] = target: Elastase (Homo sapiens, UniProt P08246); assay: biochemical
[9] = target: Factor Xa (Homo sapiens, UniProt P00742); assay: biochemical
[10] = target: Furin (Homo sapiens, UniProt P09958); assay: biochemical
[11] = target: MMP 1 (Homo sapiens, UniProt P03956); assay: biochemical
[12] = target: PLpro (Severe acute respiratory syndrome coronavirus 2, UniProt P0DTD1); assay: Protease selectivity panel: PLpro; type: biochemical; conditions: SARS-CoV-2 recombinant
[13] = target: Thrombin a (Homo sapiens, UniProt P00734); assay: biochemical
[14] = target: TMPRSS2 (Homo sapiens, UniProt O15393); assay: biochemical
[15] = target: Trypsin (Bos taurus, UniProt P00760); assay: Protease selectivity panel: Trypsin; type: biochemical; conditions: Bovine pancreas
[16] = target: Urokinase (Homo sapiens, UniProt P00749); assay: biochemical
[17] = tested on: SARS-CoV-2; assay: microbe, parasite or virus in culture; type: cell-based; conditions: Severe acute respiratory syndrome coronavirus 2, Vero C1008, read-out: SARS-CoV-2 Vero E6 EC50
[18] = tested on: SARS-CoV-2; assay: microbe, parasite or virus in culture; type: cell-based
[19] = tested on: SARS-CoV-2; assay: microbe, parasite or virus in culture; type: cell-based; conditions: Severe acute respiratory syndrome coronavirus 2, read-out: SARS-CoV-2 EC50
[20] = tested on: SARS coronavirus (strain: Urbani); assay: organism not typed; type: cell-based, SARS-CoV
[21] = tested on: Human coronavirus alpha (strain: 229E); assay: organism not typed; type: cell-based, HCoV-229E; conditions: Huh-7, read-out: EC50, human coronavirus 229E
[22] = tested on: Human coronavirus beta (strain: OC43); assay: organism not typed; type: cell-based, HCoV-OC43; conditions: Huh-7, read-out: EC50, human coronavirus OC43
[23] = tested on: Influenza A H1N1 (strain: California/07/2009); assay: microbe, parasite or virus in culture; type: cell-based
[24] = target: SARS-CoV-2; assay: cell-based
[25] = in vitro
[26] = tested on: SARS-CoV-2; assay: microbe, parasite or virus in culture; conditions: Severe acute respiratory syndrome coronavirus 2, Caco-2, 72 h, read-out: SARS-CoV-2 Caco-2 EC90
[27] = target: Cathepsin K (Homo sapiens, UniProt P43235); assay: Protease selectivity panel: Cathepsin K
[28] = target: Cathepsin S (Homo sapiens, UniProt P25774); assay: Protease selectivity panel: Cathepsin S
Chain of Cathepsin S (P25774 115-331): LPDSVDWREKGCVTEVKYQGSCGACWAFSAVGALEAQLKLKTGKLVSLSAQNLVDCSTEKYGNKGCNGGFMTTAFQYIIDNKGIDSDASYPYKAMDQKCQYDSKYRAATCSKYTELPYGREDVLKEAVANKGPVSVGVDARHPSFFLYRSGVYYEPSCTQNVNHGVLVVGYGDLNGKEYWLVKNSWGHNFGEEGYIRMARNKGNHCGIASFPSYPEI

T2 sequence (P07711 114-333): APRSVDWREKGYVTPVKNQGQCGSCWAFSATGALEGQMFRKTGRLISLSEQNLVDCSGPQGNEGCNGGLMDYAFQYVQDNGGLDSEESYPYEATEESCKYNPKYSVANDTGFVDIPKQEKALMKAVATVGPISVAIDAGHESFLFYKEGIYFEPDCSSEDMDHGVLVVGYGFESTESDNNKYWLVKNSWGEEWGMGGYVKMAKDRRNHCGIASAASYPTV
Chain of Elastase (P08246 30-267): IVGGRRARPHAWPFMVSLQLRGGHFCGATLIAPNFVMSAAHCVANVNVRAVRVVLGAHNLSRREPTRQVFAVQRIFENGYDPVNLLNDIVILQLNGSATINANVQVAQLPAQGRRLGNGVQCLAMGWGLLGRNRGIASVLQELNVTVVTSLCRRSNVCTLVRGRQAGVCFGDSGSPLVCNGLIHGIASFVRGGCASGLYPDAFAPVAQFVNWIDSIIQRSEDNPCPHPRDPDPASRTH
Chain of Factor Xa (P00742 235-488): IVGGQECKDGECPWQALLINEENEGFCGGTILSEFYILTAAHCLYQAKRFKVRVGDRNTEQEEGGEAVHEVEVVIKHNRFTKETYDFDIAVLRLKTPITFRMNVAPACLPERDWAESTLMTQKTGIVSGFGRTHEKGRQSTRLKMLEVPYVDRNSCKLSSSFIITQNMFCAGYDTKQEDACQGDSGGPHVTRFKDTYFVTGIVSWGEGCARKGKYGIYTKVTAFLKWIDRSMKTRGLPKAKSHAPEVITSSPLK
Chain of Factor Xa (P00742 41-179): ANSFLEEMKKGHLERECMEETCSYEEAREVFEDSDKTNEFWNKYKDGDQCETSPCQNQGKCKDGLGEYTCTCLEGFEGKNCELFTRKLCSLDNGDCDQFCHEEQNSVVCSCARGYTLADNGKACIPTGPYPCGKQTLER
Chain of Furin (P09958 108-715): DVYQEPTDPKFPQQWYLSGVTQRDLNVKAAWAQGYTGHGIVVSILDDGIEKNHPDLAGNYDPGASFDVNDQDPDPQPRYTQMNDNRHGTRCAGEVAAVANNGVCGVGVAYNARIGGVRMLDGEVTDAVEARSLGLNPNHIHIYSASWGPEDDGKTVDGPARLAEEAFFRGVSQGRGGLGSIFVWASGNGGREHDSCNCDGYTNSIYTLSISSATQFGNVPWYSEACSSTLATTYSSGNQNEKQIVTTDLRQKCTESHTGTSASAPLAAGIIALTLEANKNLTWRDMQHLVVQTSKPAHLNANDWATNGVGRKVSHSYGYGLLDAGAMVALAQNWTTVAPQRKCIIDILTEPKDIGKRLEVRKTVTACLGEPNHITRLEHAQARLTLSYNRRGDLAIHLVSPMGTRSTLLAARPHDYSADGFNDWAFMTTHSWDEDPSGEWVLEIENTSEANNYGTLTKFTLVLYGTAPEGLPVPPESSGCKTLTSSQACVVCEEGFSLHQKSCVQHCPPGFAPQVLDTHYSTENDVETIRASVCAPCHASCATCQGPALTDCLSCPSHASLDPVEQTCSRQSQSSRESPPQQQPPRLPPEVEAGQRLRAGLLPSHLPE
Chain of MMP 1 (P03956 100-268): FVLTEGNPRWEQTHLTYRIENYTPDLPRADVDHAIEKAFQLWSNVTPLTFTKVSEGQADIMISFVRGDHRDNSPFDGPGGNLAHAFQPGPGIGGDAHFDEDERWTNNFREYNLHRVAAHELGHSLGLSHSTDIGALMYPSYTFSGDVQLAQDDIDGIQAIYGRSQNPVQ
Chain of ACE1 (P12821 30-1261): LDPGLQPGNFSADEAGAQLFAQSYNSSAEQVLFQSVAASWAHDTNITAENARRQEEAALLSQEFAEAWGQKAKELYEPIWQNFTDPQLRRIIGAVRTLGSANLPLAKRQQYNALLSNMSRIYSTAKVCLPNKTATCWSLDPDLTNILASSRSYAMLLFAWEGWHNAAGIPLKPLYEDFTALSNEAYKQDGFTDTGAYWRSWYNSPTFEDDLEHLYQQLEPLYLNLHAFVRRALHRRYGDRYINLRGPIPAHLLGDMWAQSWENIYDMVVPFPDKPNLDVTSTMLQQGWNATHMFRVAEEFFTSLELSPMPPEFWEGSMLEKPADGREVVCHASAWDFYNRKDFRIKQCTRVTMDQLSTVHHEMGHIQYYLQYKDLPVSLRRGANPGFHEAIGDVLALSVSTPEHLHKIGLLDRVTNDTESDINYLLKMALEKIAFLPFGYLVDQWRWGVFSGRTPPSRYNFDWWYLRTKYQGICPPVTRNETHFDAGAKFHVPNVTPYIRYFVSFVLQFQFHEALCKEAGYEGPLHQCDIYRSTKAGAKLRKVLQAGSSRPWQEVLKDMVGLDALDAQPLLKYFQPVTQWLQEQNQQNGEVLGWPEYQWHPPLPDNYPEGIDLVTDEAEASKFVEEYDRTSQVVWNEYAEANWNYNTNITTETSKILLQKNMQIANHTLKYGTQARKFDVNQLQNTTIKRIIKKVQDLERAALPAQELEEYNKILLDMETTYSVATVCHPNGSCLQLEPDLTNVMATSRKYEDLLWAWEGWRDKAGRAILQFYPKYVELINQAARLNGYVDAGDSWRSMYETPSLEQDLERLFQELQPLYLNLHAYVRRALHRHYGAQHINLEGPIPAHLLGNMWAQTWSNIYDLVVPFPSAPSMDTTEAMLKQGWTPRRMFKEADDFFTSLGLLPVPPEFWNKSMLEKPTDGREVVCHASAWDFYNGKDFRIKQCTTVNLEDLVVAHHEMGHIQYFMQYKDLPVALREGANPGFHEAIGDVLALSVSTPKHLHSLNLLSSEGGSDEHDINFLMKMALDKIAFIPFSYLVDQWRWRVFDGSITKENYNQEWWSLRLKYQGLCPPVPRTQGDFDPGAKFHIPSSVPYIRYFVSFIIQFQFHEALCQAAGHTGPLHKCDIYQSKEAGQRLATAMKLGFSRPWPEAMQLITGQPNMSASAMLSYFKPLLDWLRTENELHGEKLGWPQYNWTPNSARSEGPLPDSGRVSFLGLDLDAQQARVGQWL
Chain of Cathepsin K (P43235 115-329): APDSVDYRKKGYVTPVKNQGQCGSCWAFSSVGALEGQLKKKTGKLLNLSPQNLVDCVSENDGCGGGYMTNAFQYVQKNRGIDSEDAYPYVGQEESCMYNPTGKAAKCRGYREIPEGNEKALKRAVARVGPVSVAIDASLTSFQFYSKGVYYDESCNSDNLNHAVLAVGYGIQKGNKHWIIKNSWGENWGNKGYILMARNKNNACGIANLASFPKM
Chain of ACE2 (Q9BYF1 18-740): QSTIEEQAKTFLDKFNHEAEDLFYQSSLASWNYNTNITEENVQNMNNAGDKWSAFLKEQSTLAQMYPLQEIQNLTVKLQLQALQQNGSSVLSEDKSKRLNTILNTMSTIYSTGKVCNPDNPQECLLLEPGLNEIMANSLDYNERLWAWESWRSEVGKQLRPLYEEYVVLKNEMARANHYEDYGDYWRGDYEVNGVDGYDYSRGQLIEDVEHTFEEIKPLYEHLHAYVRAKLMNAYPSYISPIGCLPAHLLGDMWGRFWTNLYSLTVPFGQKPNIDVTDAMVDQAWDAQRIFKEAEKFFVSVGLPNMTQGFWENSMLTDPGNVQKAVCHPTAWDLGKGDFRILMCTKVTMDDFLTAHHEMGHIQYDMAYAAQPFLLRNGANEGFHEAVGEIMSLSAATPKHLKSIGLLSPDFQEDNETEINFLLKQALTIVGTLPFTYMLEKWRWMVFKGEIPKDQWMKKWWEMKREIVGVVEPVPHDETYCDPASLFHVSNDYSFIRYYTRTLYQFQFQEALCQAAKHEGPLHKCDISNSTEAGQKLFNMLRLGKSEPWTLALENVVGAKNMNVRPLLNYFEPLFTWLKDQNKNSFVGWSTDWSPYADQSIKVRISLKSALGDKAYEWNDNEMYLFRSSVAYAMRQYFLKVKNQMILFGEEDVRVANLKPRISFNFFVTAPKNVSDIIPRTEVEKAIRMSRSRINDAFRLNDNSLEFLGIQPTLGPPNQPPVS
Chain of Trypsin (P00760 24-246): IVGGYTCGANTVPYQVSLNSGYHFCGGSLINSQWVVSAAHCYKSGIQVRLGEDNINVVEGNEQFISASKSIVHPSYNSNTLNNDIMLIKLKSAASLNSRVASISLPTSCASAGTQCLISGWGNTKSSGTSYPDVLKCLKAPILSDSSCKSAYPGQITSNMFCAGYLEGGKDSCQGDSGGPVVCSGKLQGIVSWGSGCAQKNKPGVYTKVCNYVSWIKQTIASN
Chain of Caspase 8 (Q14790 217-479): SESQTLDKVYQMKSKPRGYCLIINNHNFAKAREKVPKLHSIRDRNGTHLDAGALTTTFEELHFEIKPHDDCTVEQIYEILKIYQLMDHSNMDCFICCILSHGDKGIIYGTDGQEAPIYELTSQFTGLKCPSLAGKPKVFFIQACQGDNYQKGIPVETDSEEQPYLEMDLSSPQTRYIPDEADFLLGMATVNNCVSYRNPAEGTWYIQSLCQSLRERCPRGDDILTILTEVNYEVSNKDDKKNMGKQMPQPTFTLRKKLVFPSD
Chain of TMPRSS2 (O15393 106-492): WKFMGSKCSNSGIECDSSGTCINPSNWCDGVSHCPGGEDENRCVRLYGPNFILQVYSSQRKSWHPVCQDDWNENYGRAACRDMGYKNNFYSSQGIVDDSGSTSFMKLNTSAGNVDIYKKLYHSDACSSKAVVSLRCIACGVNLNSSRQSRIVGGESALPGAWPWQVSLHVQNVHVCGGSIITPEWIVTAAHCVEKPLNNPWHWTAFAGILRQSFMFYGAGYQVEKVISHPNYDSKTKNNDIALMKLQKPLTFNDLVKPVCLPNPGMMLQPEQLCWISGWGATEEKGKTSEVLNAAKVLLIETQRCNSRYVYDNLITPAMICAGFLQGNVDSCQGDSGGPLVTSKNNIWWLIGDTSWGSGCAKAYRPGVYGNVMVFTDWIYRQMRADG

With `CC(C)C[C@H](NC(=O)OCc1ccccc1Cl)C(=O)N[C@@H](C[C@@H]1CCNC1=O)C(O)S(=O)(=O)O` (some centres unmarked) [EB54] the IC50 ([1]; 20 nM protease, read-out: SARS-CoV-2 3CLpro IC50) was 29 nM, the “normalized activity, dose-response curve (Figure S16)” value (“normalized activity” below) ([1]; Concentration of inhibitor (nM) 0.19382) was 97.3415 and 94.0287 and the “normalized activity” value ([1]; Concentration of inhibitor (nM) 0.49485) was 94.642 and 94.4552. The “normalized activity” value ([1]; Concentration of inhibitor (nM) 0.79588) was 92.0244 and 86.0411, the “normalized activity” value ([1]; Concentration of inhibitor (nM) 1.09691) was 76.1141 and 67.8169 and the “normalized activity” value ([1]; Concentration of inhibitor (nM) 1.39794) was 59.5493 and 51.609. The “normalized activity” value ([1]; Concentration of inhibitor (nM) 1.69897) was 35.2953 and 26.9095, the “normalized activity” value ([1]; Concentration of inhibitor (nM) 2.30103) was 1.552 and 1.745 and the “normalized activity” value ([1]; Concentration of inhibitor (nM) 2.60206) was 1.143 and 0.9691. The “normalized activity” value ([1]; Concentration of inhibitor (nM) -0.10721) was 100.286 and 100.194, the “normalized activity” value ([1]; Concentration of inhibitor (nM) -0.40824) was 100 and the “observed inactivation rate vs compound concentration (Figure S19, replicate values)” value [2] was 0.0534 and -0.00333 and 0.0463 and 0.0575 and 0.0117 and 0.0408 and 0.0199 and 0.0198 and 0.0352 and 0.0468 and 0.0351 and 0.0076. The kinact/KI ([2]; read-out: SARS-CoV-2 3CLpro kinact/KI) was 88300 M⁻¹ s⁻¹, the IC50 [3] was > 100 µM and the IC50 [4] was > 100 µM. The IC50 [5] was 52 µM, the IC50 [6] was 350 nM and the IC50 ([7]; Human liver, substrate 1 (Z-FR-AMC), […] Cathepsin L, read-out: IC50) was 1 nM. The IC50 ([7]; Human liver, substrate 2 (MCA-PLGL-Dap(Dnp)-AR-NH2), 0.5 nM Cathepsin L, read-out: IC50) was 6 nM, the IC50 ([7]; read-out: IC50 on human cathepsin L) was 1 nM and the IC50 [8] was > 100 µM. For the same molecule, the IC50 [9] was > 100 µM, the IC50 [10] was > 100 µM and the IC50 [11] was > 100 µM. The IC50 [12] was > 100 µM, the IC50 [13] was > 100 µM and the IC50 [14] was > 100 µM. For the same molecule, the IC50 [15] was > 100 µM, the IC50 [16] was > 100 µM and the EC50 [17] was 2000 nM. For the same molecule, the “inhibition of SARS-CoV-2 (Figure s17b dose-response, replicate values)” value [18] was 99.8698 and 98.0961 and 101.644 and 87.6327 and 101.522 and 73.7431 and 78.1084 and 77.7143 and 78.5024 and 57.3714 and 60.2928 and 54.45 and 31.9222 and 32.9312 and 30.9133 and 24.3408 and 28.9565 and 19.7251 and 10.4228 and 9.535 and 11.3102, the EC50 ([18]; Severe acute respiratory syndrome coronavirus 2, 24 h, read-out: SARS-CoV-2 Huh-7ACE2 EC50) was 5 nM and the EC50 [19] was 28 nM. The EC50 ([20]; Vero 76, read-out: SARS-CoV Vero 76 EC50) was < 3000 nM, the EC50 ([20]; read-out: SARS-CoV Vero 76 EC50) was 2400 nM and the EC50 [21] was < 100 nM. The EC50 [22] was < 100 nM, the “effect on replication of Influenza H1N1 (in words)” value [23] was “no effect was observed” and the EC50 ([23]; Influenza A virus, H1N1, MDCK, read-out: Influenza A (H1N1) MDCK EC50) was > 100 µM. The EC50 [24] was 1200 nM, the CC50 [25] was > 100 µM and the EC90 [26] was 190 nM. It also gave an IC50 [27] of 20 nM and an IC50 [28] of 6 nM.
